# According to US20100075370A1, “METHOD FOR DETERMINATION OF CELL VIABILITY BY USING FLOW CYTOMETRY WITH FIXED VOLUME ACQUISITION” (TUMORTEC GMBH, priority 2006, published 2010):
# Test system: patient samples (pBMC from CLL patients)
# Experiment: DiSC assay, chemosensitivity index Ci
# Type: cell-based, human
# Description: (2) A more complex standardization is the calculation of an index. In case of the chemosensitivity testing it is not a single value that has to be standardized. The chemosensitivity towards a drug is tested with several concentrations of the drug in parallel in a cell culture assay. […] This method was adopted for the present invention from the analysis of DiSC assays (Staib et al., British Journal of Haematology, 2005, 128, 783-791). The Chemosensitivity Index Ci was designed as a prognostic index for ex vivo chemosensitivity assays. Assay results were expressed as percent tumor cell survival (% TCS). The dose-response curve as a function of the dose-response relationship may be mathematically described by a […] regression model (FIG. 4). The dose-response curve was defined as CS=c1*e^conc*c2 % with cell survival (CS), drug concentration (conc) and the constants c1 and c2. c1 represented the y-axis distance and c2 the slope of the curve. The area under the curve (AUC) as an exact measure for the total dose response relation was defined as AUC=−e^c1/c2, on condition that c2 is less than 0, otherwise AUC is infinite. The chemosensitivity index, Ci, was set up as Ci=e^−AUC*c with a domain between 0 and 1. The drug-specific constant c was used for adjusting the Ci-value of 0.5 as the cut-off point between resistance and sensitivity. The constant c was defined as
# with AUCcut-off as the smallest AUC value among all clinical non-responding patients of the training data set. Obviously, all cytotoxic agents given for treatment were ineffective in these patients. The cut-off Ci value must be adjusted to 0.5 for prognosis of the effect of the drug on a patient in vivo when the drug is tested on said patient's cells in vitro using the method of the present invention. Ci values of 0-0.5 indicated resistance and values above 0.5 predicted sensitivity against the drug tested.
# The chemosensitivity index Ci based on the DiSC assay as described in Staib, P. et al., Br. J. Haematol., 128(6):783-91 (2005) is known to have a very high accuracy of prediction (98%) for the clinical outcome of a particular chemotherapy (Staib, P. et al., Br. J. Haematol., 128(6):783-91 (2005)). In order to evaluate the accuracy of the cytotoxicity assay as described in example 1 (“new method”), the Ci determination was performed for assay results of patient samples analyzed with the traditional DiSC assay and—in parallel—with the new assay method described in example 1. In total, 22 patient samples were analyzed. Fludara® was used in both assays. The cytotoxicity assay of example 1 was performed as described therein, and the DiSC assay was performed as described in Staib, P. et al., Br. J. Haematol., 128(6):783-91 (2005).
compound,measurement,setting,value
"Nc1nc(F)nc2c1ncn2[C@@H]1O[C@H](COP(=O)(O)O)[C@@H](O)[C@@H]1O [Fludarabine phosphate, 2-Fluoro-9-(5-O-phosphono-β-D-arabinofuranosyl)-9H-purin-6-amine]",Ci (DiSC-Assay),patient #1,0.99
same,prediction (DiSC-Assay),patient #1,sensitive (values above 0.5 predicted sensitivity against the drug tested)
same,Ci (DiSC-Assay),patient #2,0.98
same,prediction (DiSC-Assay),patient #2,sensitive (values above 0.5 predicted sensitivity against the drug tested)
same,Ci (DiSC-Assay),patient #3,0.97
same,prediction (DiSC-Assay),patient #3,sensitive (values above 0.5 predicted sensitivity against the drug tested)
same,Ci (DiSC-Assay),patient #4,0.95
same,prediction (DiSC-Assay),patient #4,sensitive (values above 0.5 predicted sensitivity against the drug tested)
same,Ci (DiSC-Assay),patient #5,0.90
same,prediction (DiSC-Assay),patient #5,sensitive (values above 0.5 predicted sensitivity against the drug tested)
same,Ci (DiSC-Assay),patient #6,0.89
same,prediction (DiSC-Assay),patient #6,sensitive (values above 0.5 predicted sensitivity against the drug tested)
same,Ci (DiSC-Assay),patient #7,0.85
same,prediction (DiSC-Assay),patient #7,sensitive (values above 0.5 predicted sensitivity against the drug tested)
same,Ci (DiSC-Assay),patient #8,0.81
same,prediction (DiSC-Assay),patient #8,sensitive (values above 0.5 predicted sensitivity against the drug tested)
same,Ci (DiSC-Assay),patient #9,0.75
same,prediction (DiSC-Assay),patient #9,sensitive (values above 0.5 predicted sensitivity against the drug tested)
same,Ci (DiSC-Assay),patient #10,0.70
same,prediction (DiSC-Assay),patient #10,sensitive (values above 0.5 predicted sensitivity against the drug tested)
same,Ci (DiSC-Assay),patient #11,0.68
same,prediction (DiSC-Assay),patient #11,sensitive (values above 0.5 predicted sensitivity against the drug tested)
same,Ci (DiSC-Assay),patient #12,0.61
same,prediction (DiSC-Assay),patient #12,sensitive (values above 0.5 predicted sensitivity against the drug tested)
same,Ci (DiSC-Assay),patient #13,0.60
same,prediction (DiSC-Assay),patient #13,sensitive (values above 0.5 predicted sensitivity against the drug tested)
same,Ci (DiSC-Assay),patient #14,0.57
same,prediction (DiSC-Assay),patient #14,sensitive (values above 0.5 predicted sensitivity against the drug tested)
same,Ci (DiSC-Assay),patient #15,0.55
same,prediction (DiSC-Assay),patient #15,sensitive (values above 0.5 predicted sensitivity against the drug tested)
same,Ci (DiSC-Assay),patient #16,0.50
same,prediction (DiSC-Assay),patient #16,resistant (Ci values of 0-0.5 indicated resistance)
same,Ci (DiSC-Assay),patient #17,0.47
same,prediction (DiSC-Assay),patient #17,resistant (Ci values of 0-0.5 indicated resistance)
same,Ci (DiSC-Assay),patient #18,0.46
same,prediction (DiSC-Assay),patient #18,resistant (Ci values of 0-0.5 indicated resistance)
same,Ci (DiSC-Assay),patient #19,0.43
same,prediction (DiSC-Assay),patient #19,resistant (Ci values of 0-0.5 indicated resistance)
same,Ci (DiSC-Assay),patient #20,0.39
same,prediction (DiSC-Assay),patient #20,resistant (Ci values of 0-0.5 indicated resistance)
same,Ci (DiSC-Assay),patient #21,0.34
same,prediction (DiSC-Assay),patient #21,resistant (Ci values of 0-0.5 indicated resistance)
same,Ci (DiSC-Assay),patient #22,0.32
same,prediction (DiSC-Assay),patient #22,resistant (Ci values of 0-0.5 indicated resistance)
